According to US9556159B2, “Renin inhibitor” (MITSUBISHI TANABE PHARMA CORPORATION, priority 2012, dated 2017):

Biological target: T1, Recombinant human renin (Homo sapiens, UniProt P00797)
T1 sequence (P00797 67-406): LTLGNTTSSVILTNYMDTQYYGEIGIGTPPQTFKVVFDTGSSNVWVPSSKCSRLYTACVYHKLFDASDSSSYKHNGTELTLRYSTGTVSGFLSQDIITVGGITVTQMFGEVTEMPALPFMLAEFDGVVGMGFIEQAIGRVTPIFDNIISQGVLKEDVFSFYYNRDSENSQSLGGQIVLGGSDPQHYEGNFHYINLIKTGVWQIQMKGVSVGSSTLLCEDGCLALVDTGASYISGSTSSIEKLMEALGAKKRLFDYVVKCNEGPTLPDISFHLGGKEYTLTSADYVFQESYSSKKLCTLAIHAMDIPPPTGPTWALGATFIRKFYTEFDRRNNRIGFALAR
Experiment: Inhibitory activity against human renin (fluorogenic peptide substrate)
Type: biochemical
Details: 37° C. for 1 hour, read-out: IC50
Experimental: Inhibitory Activity Against Human Renin
A substrate of synthetic peptide (Nma-KHPFH LVIHK(Dnp)-NH2) and test compound were mixed, and fluorescence intensity was assayed using a fluorophotometer before starting an enzymatic reaction (exciting wavelength: 340 nm, measuring wavelength: 460 nm). Recombinant human renin was added and the mixture was incubated at 37° C. for 1 hour, and the fluorescence intensity was measured after the reaction using a fluorophotometer (exciting wavelength: 340 nm, measuring wavelength: 460 nm).

IC50 [nM]	Compound
0.9	COCCCCc1cc([C@@H](C)N(C(=O)[C@H]2CNCCO2)C2CC2)cc(C(C)C)n1 [Example 110]
0.7	CCOc1ccc([C@@H](C)N(C(=O)[C@H]2CNCCO2)C2CC2)cc1CCCNC(=O)OC [Example 106]
3.5	COC(=O)NCCCn1nc([C@@H](C)N(C(=O)[C@H]2CNCCO2)C2CC2)c2ccc(CN(C)C)cc21 [Example 111]
1	COC(=O)NCCCn1nc([C@@H](C)N(C(=O)[C@H]2CNCCO2)C2CC2)c2ncc(C)cc21 [Example 70]
4.2	COCCCCn1cc([C@@H](C)N(C(=O)[C@H]2CNCCO2)C2CC2)c2nc(C)ccc21 [Example 56]
0.5	COC(=O)NCCCn1cc([C@@H](C)N(C(=O)[C@H]2CNCCO2)C2CC2)c2nccc(C)c21 [Example 42]
0.8	COCc1ccc([C@@H](C)N(C(=O)[C@H]2CNCCO2)C2CC2)cc1CCCNC(=O)OC [Example 96]
1	COC(=O)NCCCc1cc(OC)cc([C@@H](C)N(C(=O)[C@H]2CNCCO2)C2CC2)c1 [Example 85]
1.1	COC(=O)NCCc1cn(C)c2ccc([C@@H](C)N(C(=O)[C@H]3CNCCO3)C3CC3)cc12 [Example 108]
0.3	COC(=O)NCCCn1cc([C@@H](C)N(C(=O)[C@H]2CNCCO2)C2CC2)c2cc(F)cnc21 [Example 75]
4.5	CCC(=O)NCCCc1cc([C@@H](C)N(C(=O)[C@H]2CNCCO2)C2CC2)ccc1OC [Example 68]
3.3	COCCCOc1nc([C@@H](C)N(C(=O)[C@H]2CNCCO2)C2CC2)cc2ccccc12 [Example 32]
0.9	COCCCCc1cc([C@@H](C)N(C(=O)[C@H]2CNCCO2)C2CC2)cc(OC)n1 [Example 78]
7.1	CNC(=O)NCCCn1nc([C@@H](C)N(C(=O)[C@H]2CNCCO2)C2CC2)c2ccc(C)cc21 [Example 28]
2.1	COCCCn1cc(CCCNC(=O)OC)c2cnc([C@@H](C)N(C(=O)[C@H]3CNCCO3)C3CC3)cc21 [Example 83]

Same assay, conditions: 50% inhibitory concentration (IC50) against human renin, 37° C. for 1 hour

Compound	IC50 [nM]
COC(=O)NCCCc1cc([C@@H](C)N(C(=O)[C@H]2CNC[C@@H](C)O2)C2CC2)cc(OC)n1 [Example 238]	0.6
CCOc1ncc([C@@H](C)N(C(=O)[C@H]2CNCCO2)C2CC2)cc1CCCNC(=O)OC [Example 251]	0.8
CCc1nc([C@@H](C)N(C(=O)[C@H]2CNCCO2)C2CC2)cc2c1c(C)cn2CCCOC [Example 140]	0.8
COC(=O)NCCCn1cc([C@@H](C)N(C(=O)[C@H]2CNC[C@@H](C(F)(F)F)O2)C2CC2)c2ncccc21 [Example 252]	6.4
COc1ccc2nc([C@@H](C)N(C(=O)[C@H]3CNCCO3)C3CC3)cc(CCCNC(C)=O)c2c1 [Example 156]	2.1
COC(=O)NCCCc1cc([C@@H](C)N(C(=O)[C@H]2CNCCO2)C2CC2)nn1C(C)(C)C [Example 213]	0.3
COC(=O)NCCCc1cc([C@@H](C)N(C(=O)[C@H]2CNCCO2)C2CC2)sc1-c1ccccn1 [Example 227]	0.2
COC(=O)NCCCc1cc([C@@H](C)N(C(=O)[C@H]2CNCCO2)C2CC2)sc1-c1cnn(C)c1 [Example 240]	0.2
CCOc1cc([C@@H](C)N(C(=O)[C@H]2CNCCO2)C2CC2)cc(CCCNC(=O)OC)n1 [Example 237]	0.5
COC(=O)NCCCc1cc([C@@H](C)N(C(=O)[C@H]2CNCCO2)C2CC2)nc2c1CCCC2 [Example 122]	0.2
COc1ccc2nc([C@@H](C)N(C(=O)[C@H]3CNCCO3)C3CC3)cc(CCCNC=O)c2c1 [Example 157]	3.4
COC(=O)NCCCc1cc([C@@H](C)N(C(=O)[C@H]2CNCCO2)C2CC2)sc1-c1ccccc1C(=O)NS(=O)(=O)c1ccccc1 [Example 288]	0.4
COC(=O)NCCCn1nc([C@@H](C)N(C(=O)[C@H]2CNC[C@@H](C(=O)OC)O2)C2CC2)c2ccc(C)nc21 [Example 254]	0.5
CCc1cc(CCCNC(=O)OC)cc([C@@H](C)N(C(=O)[C@H]2CNCCO2)C2CC2)n1 [Example 120]	1.7
COC(=O)NCCCn1cc([C@@H](C)N(C(=O)[C@H]2CNC[C@@H](C)O2)C2CC2)nc1-c1ccccc1 [Example 202]	0.2
COC(=O)NCCCc1cc([C@@H](C)N(C(=O)[C@H]2CNCCO2)C2CC2)sc1-c1cc(C(=O)OC)cc(C(F)(F)F)c1 [Example 260]	2.6
COCCCCn1cc([C@@H](C)N(C(=O)[C@H]2CNCCO2)C2CC2)c2ccnc(C)c21 [Example 134]	6.3
COC(=O)NCCCn1cc([C@@H](C)N(C(=O)[C@H]2CNCCO2)C2CC2)c2ncc(C(C)C)nc21 [Example 162]	0.6
COC(=O)NCCCn1cc([C@@H](C)N(C(=O)[C@H]2CN[C@@H](C)CO2)C2CC2)nc1-c1ccc(F)cc1 [Example 280]	0.3
COC(=O)NCCCn1nc([C@@H](C)N(C(=O)[C@H]2CNCCO2)C2CC2)cc1-c1ccc(OC)nc1 [Example 174]	0.4
CNC(=O)[C@@H]1CNC[C@H](C(=O)N(C2CC2)[C@H](C)c2nn(CCCNC(=O)OC)c3nc(C)ccc23)O1 [Example 259]	1.2
CCc1nc([C@@H](C)N(C(=O)[C@H]2CNCCO2)C2CC2)cc2c1c(C#N)cn2CCCOC [Example 161]	0.7
COC(=O)NCCCc1nc([C@@H](C)N(C(=O)[C@H]2CNCCO2)C2CC2)cn1-c1ccccc1 [Example 182]	0.7
COC(=O)NCCCn1cc([C@@H](C)N(C(=O)[C@H]2CNCCO2)C2CC2)nc1-c1ccc(C)cc1 [Example 163]	0.4
COC(=O)NCCCc1cc([C@@H](C)N(C(=O)[C@H]2CNCCO2)C2CC2)cnc1C1CCCC1 [Example 137]	0.4
COC(=O)NCCCc1cc([C@@H](C)N(C(=O)[C@H]2CNCCO2)C2CC2)nn1C1CCCCC1 [Example 210]	0.2
COC(=O)NCCCn1cc([C@@H](C)N(C(=O)[C@H]2CNC[C@@H](C)O2)C2CC2)nc1-c1ccc(F)cc1 [Example 282]	0.6
COC(=O)NCCCc1cc([C@@H](C)N(C(=O)[C@H]2CNCCO2)C2CC2)sc1-c1ccccc1-c1nnn[nH]1 [Example 270]	0.5
COC[C@H]1CO[C@@H](C(=O)N(C2CC2)[C@H](C)c2cc(CCCNC(=O)OC)n(-c3ccccc3)n2)CN1 [Example 283]	0.9

The remaining lines, values ahead:

IC50 [nM]	Compound
0.3	COC(=O)NCCCn1cc([C@H](C)N(C(=O)[C@H]2CN[C@@H](CCF)CO2)C2CC2)nc1OC(C)C [Example 341]
7.6	COC(=O)NCCCc1nc(C(C)N(C(=O)[C@H]2CNCCO2)C2CC2)nn1-c1cccc(Cl)c1 (some centres unmarked) [Example 360]
1.6	CC[C@H]1CO[C@@H](C(=O)N(C2CC2)[C@@H](C)c2cn(CCCNC(=O)OC)c(OC(C)C)n2)CN1 [Example 336]
3.2	COC[C@@H]1CNC[C@H](C(=O)N(C2CC2)[C@H](C)c2cc(OC)nc(CCCNC(=O)OC)n2)O1 [Example 386]
5.3	COC(=O)NCCCc1nc(C(C)N(C(=O)[C@H]2CNCCO2)C2CC2)c(C)n1-c1ccccc1 (some centres unmarked) [Example 343]
0.7	COCCOc1cc([C@@H](C)N(C(=O)[C@H]2CNC[C@@H](C)O2)C2CC2)cc(CCCNC(=O)OC)n1 [Example 366]
7.6	COC(=O)NCCCc1cc([C@@H](C)N(C(=O)[C@H]2CN[C@@H](C)CO2)C2CC2)cc(C2CC2)n1 [Example 352]
0.8	COC[C@@H]1CNC[C@H](C(=O)N(C2CC2)[C@H](C)c2cc(CCCNC(=O)OC)n(C3CCOCC3)n2)O1 [Example 303]
2.2	C=C(C)c1sc(C(C)N(C(=O)[C@H]2CNCCO2)C2CC2)cc1CCCNC(=O)OC (some centres unmarked) [Example 411]
2.8	COC[C@H]1CO[C@@H](C(=O)N(C2CC2)[C@H](C)c2cc(CCCNC(=O)OC)n(C(C)C)n2)CN1 [Example 300]
0.4	CCOC[C@@H]1CNC[C@H](C(=O)N(C2CC2)[C@@H](C)c2cc(CCCNC(=O)OC)nc(OC)c2)O1 [Example 311]
3.4	COC(=O)NCCCc1sc(C(C)N(C(=O)[C@H]2CNCCO2)C2CC2)cc1-c1ccccc1F (some centres unmarked) [Example 406]
7.7	COC(=O)NCCCn1nc([C@@H](C)N(C(=O)[C@H]2CNC[C@@H](C(C)(C)O)O2)C2CC2)c2ccc(C)nc21 [Example 293]
2	CCOc1ncc([C@@H](C)N(C(=O)[C@H]2CNCCO2)C2CC2)nc1CCCNC(=O)OC [Example 391]
1.3	COC(=O)NCCCn1cc([C@H](C)N(C(=O)[C@H]2CN[C@@H](CC(F)F)CO2)C2CC2)nc1C1CCOCC1 [Example 318]
1.3	COCCOc1cc([C@@H](C)N(C(=O)[C@H]2CNC[C@@H](COC)O2)C2CC2)cc(CCCNC(=O)OC)n1 [Example 383]
3.6	COCCCc1cc([C@@H](C)N(C(=O)[C@H]2CNC[C@@H](COC)O2)C2CC2)cc(CCCNC(=O)OC)n1 [Example 382]
0.5	COC(=O)NCCCc1cc([C@@H](C)N(C(=O)[C@H]2CNCCO2)C2CC2)sc1-c1ccccc1NS(=O)(=O)C(F)(F)F [Example 297]
0.7	COCCCCc1cc([C@@H](C)N(C(=O)[C@H]2CNC[C@@H](COC)O2)C2CC2)cc(OC)n1 [Example 304]
1	COC(=O)NCCCc1cc([C@@H](C)N(C(=O)[C@H]2CNCCO2)C2CC2)sc1-c1cnc(N)nc1 [Example 409]
2.6	CCc1cc([C@@H](C)N(C(=O)[C@H]2CNC[C@@H](C)O2)C2CC2)nc2c1cnn2CCCOC [Example 380]
